Laboratory results reported in PubChem BioAssay AID1963851 (Molecular Pharmacology Branch, DTP, NCI, 2024).
pIC50: −log10 of the molar value.

Test system: 188146-221-R-J1-PDC complex spheroid viability
Experiment: Anticancer human tumor 188146-221-R-J1-PDC patient-derived colon adenocarcinoma cell line growth inhibition [POLQ]
Settings: for pIC50: curve of first compound; for viability, T/C: stronger effect = lower value
In short: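 Growth inhibition in 3D: complex spheroids (tumor PDC, HUVEC, MSC) treated with POLQ inhibitor combinations; where Cmax unknown, highest tested concentration 10 microM, except SN-38 at 1 microM.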

[1] = second compound 0.0316 µM, first compound 0.0316 µM
[2] = second compound 0.0316 µM, first compound 0.1 µM
[3] = second compound 0.0316 µM, first compound 0.316 µM
[4] = second compound 0.0316 µM, first compound 1 µM
[5] = second compound 0.1 µM, first compound 0.0316 µM
[6] = second compound 0.1 µM, first compound 0.1 µM
[7] = second compound 0.1 µM, first compound 0.316 µM
[8] = second compound 0.1 µM, first compound 1 µM
[9] = second compound 0.316 µM, first compound 0.0316 µM
[10] = second compound 0.316 µM, first compound 0.1 µM
[11] = second compound 0.316 µM, first compound 0.316 µM
[12] = second compound 0.316 µM, first compound 1 µM
[13] = second compound 1 µM, first compound 0.0316 µM
[14] = second compound 1 µM, first compound 0.1 µM
[15] = second compound 1 µM, first compound 0.316 µM
[16] = second compound 1 µM, first compound 1 µM
[17] = second compound 3.16 µM, first compound 0.0316 µM
[18] = second compound 3.16 µM, first compound 0.1 µM
[19] = second compound 3.16 µM, first compound 0.316 µM
[20] = second compound 3.16 µM, first compound 1 µM
[21] = second compound 10 µM, first compound 0.0316 µM
[22] = second compound 10 µM, first compound 0.1 µM
[23] = second compound 10 µM, first compound 0.316 µM
[24] = second compound 10 µM, first compound 1 µM
[25] = second compound 0.0316 µM, first compound 3.16 µM
[26] = second compound 0.0316 µM, first compound 10 µM
[27] = second compound 0.1 µM, first compound 3.16 µM
[28] = second compound 0.1 µM, first compound 10 µM
[29] = second compound 0.316 µM, first compound 3.16 µM
[30] = second compound 0.316 µM, first compound 10 µM
[31] = second compound 1 µM, first compound 3.16 µM
[32] = second compound 1 µM, first compound 10 µM
[33] = second compound 3.16 µM, first compound 3.16 µM
[34] = second compound 3.16 µM, first compound 10 µM
[35] = second compound 10 µM, first compound 3.16 µM
[36] = second compound 10 µM, first compound 10 µM
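Further: spheroids exposed to compounds for seven days.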
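Wherever viability, T/C is given: 100% = DMSO vehicle control viability.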

C=CCn1c(=O)c2cnc(Nc3ccc(N4CCN(C)CC4)cc3)nc2n1-c1cccc(C(C)(C)O)n1 + Nc1ccc(C#CCN(C(=O)Cc2ncc(C(F)(F)F)cc2C(F)(F)F)c2ccc(F)cc2)nn1
pIC50 (second compound 0.0316 µM): < 6.00
pIC50 (second compound 0.1 µM): < 6.00
pIC50 (second compound 0.316 µM): < 6.00
pIC50 (second compound 1 µM): < 6.00
pIC50 (second compound 3.16 µM): < 6.00
pIC50 (second compound 10 µM): 6.10
viability, T/C (second compound 0.0316 µM, first compound 0.00316 µM): 112%
viability, T/C (second compound 0.0316 µM, first compound 0.01 µM): 100%
viability, T/C [1]: 98.6%
viability, T/C [2]: 100%
viability, T/C [3]: 102%
viability, T/C [4]: 55.6%
viability, T/C (second compound 0.1 µM, first compound 0.00316 µM): 111%
viability, T/C (second compound 0.1 µM, first compound 0.01 µM): 97%
viability, T/C [5]: 119%
viability, T/C [6]: 117%
viability, T/C [7]: 109%
viability, T/C [8]: 57.1%
viability, T/C (second compound 0.316 µM, first compound 0.00316 µM): 115%
viability, T/C (second compound 0.316 µM, first compound 0.01 µM): 104%
viability, T/C [9]: 115%
viability, T/C [10]: 111%
viability, T/C [11]: 84.6%
viability, T/C [12]: 50.6%
viability, T/C (second compound 1 µM, first compound 0.00316 µM): 119%
viability, T/C (second compound 1 µM, first compound 0.01 µM): 106%
viability, T/C [13]: 100%
viability, T/C [14]: 122%
viability, T/C [15]: 101%
viability, T/C [16]: 55.9%
viability, T/C (second compound 3.16 µM, first compound 0.00316 µM): 107%
viability, T/C (second compound 3.16 µM, first compound 0.01 µM): 110%
viability, T/C [17]: 114%
viability, T/C [18]: 110%
viability, T/C [19]: 108%
viability, T/C [20]: 52.1%
viability, T/C (second compound 10 µM, first compound 0.00316 µM): 114%
viability, T/C (second compound 10 µM, first compound 0.01 µM): 114%
viability, T/C [21]: 104%
viability, T/C [22]: 110%
viability, T/C [23]: 98.4%
viability, T/C [24]: 37.2%

CC1COCCN1c1cc(-c2ccnn2C)c2ccnc(-c3ccn[nH]3)c2n1 (stereo unspecified) + Nc1ccc(C#CCN(C(=O)Cc2ncc(C(F)(F)F)cc2C(F)(F)F)c2ccc(F)cc2)nn1
pIC50 (second compound 0.0316 µM): 6.75
pIC50 (second compound 0.1 µM): 6.64
pIC50 (second compound 0.316 µM): 6.76
pIC50 (second compound 1 µM): 6.85
pIC50 (second compound 3.16 µM): 6.79
pIC50 (second compound 10 µM): 6.75
viability, T/C [1]: 84.9%
viability, T/C [2]: 63.2%
viability, T/C [3]: 36.3%
viability, T/C [4]: 22.6%
viability, T/C [25]: 16.3%
viability, T/C [26]: 14.5%
viability, T/C [5]: 86.4%
viability, T/C [6]: 72.8%
viability, T/C [7]: 40.3%
viability, T/C [8]: 22.3%
viability, T/C [27]: 17.2%
viability, T/C [28]: 12.9%
viability, T/C [9]: 80%
viability, T/C [10]: 61.1%
viability, T/C [11]: 38.3%
viability, T/C [12]: 20%
viability, T/C [29]: 14.1%
viability, T/C [30]: 15.8%
viability, T/C [13]: 96.3%
viability, T/C [14]: 54%
viability, T/C [15]: 40.2%
viability, T/C [16]: 19.2%
viability, T/C [31]: 16.2%
viability, T/C [32]: 15%
viability, T/C [17]: 89.7%
viability, T/C [18]: 56.7%
viability, T/C [19]: 42.6%
viability, T/C [20]: 19.6%
viability, T/C [33]: 17.4%
viability, T/C [34]: 14.2%
viability, T/C [21]: 77.3%
viability, T/C [22]: 66.1%
viability, T/C [23]: 33.2%
viability, T/C [24]: 19.8%
viability, T/C [35]: 18.6%
viability, T/C [36]: 14.7%

CCCS(=O)(=O)Nc1ccc(F)c(C(=O)c2c[nH]c3ncc(-c4ccc(Cl)cc4)cc23)c1F + Nc1ccc(C#CCN(C(=O)Cc2ncc(C(F)(F)F)cc2C(F)(F)F)c2ccc(F)cc2)nn1
pIC50 (second compound 0.0316 µM): 5.18
pIC50 (second compound 0.1 µM): 5.21
pIC50 (second compound 0.316 µM): 5.16
pIC50 (second compound 1 µM): 5.20
pIC50 (second compound 3.16 µM): 5.20
pIC50 (second compound 10 µM): 5.18
viability, T/C [1]: 104%
viability, T/C [2]: 116%
viability, T/C [3]: 101%
viability, T/C [4]: 84.7%
viability, T/C [25]: 85.3%
viability, T/C [26]: 33.6%
viability, T/C [5]: 119%
viability, T/C [6]: 98.2%
viability, T/C [7]: 103%
viability, T/C [8]: 89.2%
viability, T/C [27]: 81.9%
viability, T/C [28]: 29%
viability, T/C [9]: 94.4%
viability, T/C [10]: 99.6%
viability, T/C [11]: 101%
viability, T/C [12]: 88.7%
viability, T/C [29]: 93.8%
viability, T/C [30]: 29.2%
viability, T/C [13]: 95.9%
viability, T/C [14]: 96.7%
viability, T/C [15]: 88.9%
viability, T/C [16]: 76.8%
viability, T/C [31]: 80.2%
viability, T/C [32]: 33%
viability, T/C [17]: 98.5%
viability, T/C [18]: 104%
viability, T/C [19]: 104%
viability, T/C [20]: 77.2%
viability, T/C [33]: 84%
viability, T/C [34]: 30.6%
viability, T/C [21]: 116%
viability, T/C [22]: 112%
viability, T/C [23]: 103%
viability, T/C [24]: 91.5%
viability, T/C [35]: 82.5%
viability, T/C [36]: 33.1%
